pIC50: −log10 of the molar value. ≈ marks a conversion by molar mass, not a printed value. Read-outs that look alike come from different tables or passages of the source. Marks after values point to notes of the source that are not given here.
Key:
[1] = molecular target: mitochondrial complex II (CII) (Rattus norvegicus, UniProt P21913+Q641Z9+Q6PCT8); test: Complex II inhibition assay, isolated rat heart mitochondria; conditions: for CII inhibition activity: 100 nM where stated; for LLE (Ligand-Lipophilicity Efficiency): LLE = pIC50-ClogP
[2] = tested on: PC3 prostate cancer cells under hypoxia; test: Cell death under hypoxia, microfluidic chip, Annexin V and Sytox Green
[3] = tested on: CII; conditions: cited from earlier work
[4] = molecular target: Complex I (NADH ubiquinone-oxidoreductase) (Mus musculus, UniProt P03888+Q91WD5+Q9DC70); test: Complex I inhibition assay, mouse cardiac mitochondria; conditions: for Selectivity Ratio (CII:CI): Table 3
[5] = molecular target: bovine CII (Bos taurus, UniProt P35720+Q3T189+Q95123); conditions: literature [27]; cited from earlier work
[6] = tested on: WPMY-1 prostate stromal cells; test: Cytotoxicity, WPMY-1 prostate stromal cells; type: cell-based; conditions: Homo sapiens
[7] = tested on: 22Rv1 prostate cancer cells; test: Cytotoxicity MTS assay, 22Rv1
[8] = tested on: HEK293 cells; test: Cytotoxicity MTS assay, HEK293
[9] = tested on: DU-145 prostate cancer cells; test: Cytotoxicity MTS assay, DU-145
[10] = Table 5, SDH1 and SDH2, percent relative to control
[11] = read-out: CII IC50, rat heart CII
[12] = read-out: CII IC50, rat heart mitochondria, mean value of four experiments

Chain of mitochondrial complex II (CII) (P21913 31-282): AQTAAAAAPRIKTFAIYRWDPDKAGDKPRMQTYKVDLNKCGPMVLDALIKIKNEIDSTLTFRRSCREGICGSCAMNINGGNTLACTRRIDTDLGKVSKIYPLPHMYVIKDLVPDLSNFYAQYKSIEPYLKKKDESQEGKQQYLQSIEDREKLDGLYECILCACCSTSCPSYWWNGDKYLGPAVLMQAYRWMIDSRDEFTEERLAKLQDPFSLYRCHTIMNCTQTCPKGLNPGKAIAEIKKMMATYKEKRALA
Chain of mitochondrial complex II (CII) (Q641Z9 30-169 limits assumed): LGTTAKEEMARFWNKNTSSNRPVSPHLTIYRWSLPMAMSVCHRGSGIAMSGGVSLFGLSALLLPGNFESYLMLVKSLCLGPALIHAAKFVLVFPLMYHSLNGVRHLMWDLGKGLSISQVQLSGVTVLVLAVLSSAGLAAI
Chain of mitochondrial complex II (CII) (Q6PCT8 57-159): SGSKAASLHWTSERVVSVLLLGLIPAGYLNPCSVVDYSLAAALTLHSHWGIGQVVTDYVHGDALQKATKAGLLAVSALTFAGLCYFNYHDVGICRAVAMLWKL
Chain of mitochondrial complex II (CII) (Q920L2 35-656 partner): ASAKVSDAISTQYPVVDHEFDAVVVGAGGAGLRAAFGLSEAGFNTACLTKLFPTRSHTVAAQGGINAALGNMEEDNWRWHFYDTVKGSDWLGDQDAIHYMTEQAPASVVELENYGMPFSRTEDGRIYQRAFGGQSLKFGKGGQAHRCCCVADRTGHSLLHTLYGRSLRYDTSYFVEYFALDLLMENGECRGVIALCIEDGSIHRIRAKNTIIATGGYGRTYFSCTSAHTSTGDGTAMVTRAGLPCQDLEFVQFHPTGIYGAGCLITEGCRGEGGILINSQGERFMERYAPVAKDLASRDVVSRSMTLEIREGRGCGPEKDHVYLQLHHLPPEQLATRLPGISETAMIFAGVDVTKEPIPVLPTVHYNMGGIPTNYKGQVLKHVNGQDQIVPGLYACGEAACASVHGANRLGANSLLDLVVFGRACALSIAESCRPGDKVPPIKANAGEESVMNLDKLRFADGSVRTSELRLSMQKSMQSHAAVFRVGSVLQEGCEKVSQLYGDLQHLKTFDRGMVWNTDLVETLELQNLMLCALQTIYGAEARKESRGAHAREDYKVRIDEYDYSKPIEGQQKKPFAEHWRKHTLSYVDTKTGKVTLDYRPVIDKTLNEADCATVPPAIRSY
Chain of bovine CII (Q3T189 29-280): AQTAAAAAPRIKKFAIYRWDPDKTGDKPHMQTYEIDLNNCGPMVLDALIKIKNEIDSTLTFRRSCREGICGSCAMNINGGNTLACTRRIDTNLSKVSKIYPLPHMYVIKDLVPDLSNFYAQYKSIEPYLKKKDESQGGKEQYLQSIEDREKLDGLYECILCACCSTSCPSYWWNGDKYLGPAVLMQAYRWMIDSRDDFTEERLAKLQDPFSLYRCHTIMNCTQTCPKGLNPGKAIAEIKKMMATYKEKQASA
Chain of bovine CII (P35720 30-169): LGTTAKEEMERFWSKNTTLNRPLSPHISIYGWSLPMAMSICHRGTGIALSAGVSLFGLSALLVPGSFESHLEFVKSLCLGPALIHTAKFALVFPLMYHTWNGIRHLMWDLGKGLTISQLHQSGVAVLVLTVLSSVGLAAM
Chain of bovine CII (Q95123 56-158): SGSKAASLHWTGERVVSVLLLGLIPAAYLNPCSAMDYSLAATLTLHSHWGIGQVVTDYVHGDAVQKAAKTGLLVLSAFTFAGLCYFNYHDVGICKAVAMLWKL
Chain of bovine CII (P31039 44-665 partner): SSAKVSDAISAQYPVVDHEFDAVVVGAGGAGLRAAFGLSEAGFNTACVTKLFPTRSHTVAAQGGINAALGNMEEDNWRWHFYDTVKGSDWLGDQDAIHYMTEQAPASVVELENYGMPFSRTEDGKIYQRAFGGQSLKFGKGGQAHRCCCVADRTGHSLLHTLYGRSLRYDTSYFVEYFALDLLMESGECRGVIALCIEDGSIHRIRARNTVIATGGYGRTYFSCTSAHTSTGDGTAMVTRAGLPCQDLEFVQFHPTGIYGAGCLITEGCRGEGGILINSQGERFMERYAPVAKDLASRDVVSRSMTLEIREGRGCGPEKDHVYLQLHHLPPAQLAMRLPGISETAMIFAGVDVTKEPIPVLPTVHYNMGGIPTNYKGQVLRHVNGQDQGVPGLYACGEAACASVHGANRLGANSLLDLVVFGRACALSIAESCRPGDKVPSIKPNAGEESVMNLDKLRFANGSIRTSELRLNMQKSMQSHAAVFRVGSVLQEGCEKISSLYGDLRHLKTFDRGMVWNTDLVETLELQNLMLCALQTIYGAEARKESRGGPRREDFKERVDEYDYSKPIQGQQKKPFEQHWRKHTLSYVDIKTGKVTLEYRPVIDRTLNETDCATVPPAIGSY

## CCCCCC(O)c1c(O)nc(OC)c(OC)c1O (racemic) [Compound 18, (rac)-3-(1-hydroxyhexyl)-5,6-dimethoxypyridine-2,4-diol]
[1]
  inhibition of CII at 100 nM concentration: 0%
  CII inhibition activity: no CII inhibition activity
[2]; up to 10 μM
  cytotoxic effect under hypoxia: no cytotoxic effect

## CCCCCC(O)c1cnc(OC)c(OC)c1O (racemic) [Compound 19, (rac)-5-(1-hydroxyhexyl)-2,3-dimethoxypyridin-4-ol]
[1]
  inhibition of CII at 100 nM concentration: 0%
  CII inhibition activity: inactive compound

## COc1[nH]c(=O)c(C(=O)[C@@H](C)C[C@H](C)[C@@H](Cl)CCl)c(O)c1OC [Atpenin A5, atpenin A5]
[3]; literature [20, 23]
  pIC50: 8.00 to 8.44
[4]
  Selectivity Ratio (CII:CI): >3030
[4]; read-out: Complex I IC50
  pIC50: < 5.00
[1]
  LLE (Ligand-Lipophilicity Efficiency): 5.36
[1]; [11]
  pIC50: 8.48
[1]; [12]
  pIC50: 8.48
[1]; read-out: Complex II IC50, Table 3
  pIC50: 8.48

## COc1nc(O)c(C(=O)c2ccco2)c(O)c1OC [Compound 16a, (2,4-dihydroxy-5,6-dimethoxypyridin-3-yl)(furan-2-yl)methanone]
[1]
  inhibition of CII at 100 nM concentration: 0%^e
  CII inhibition activity: abrogates CII inhibition activity

## CCCCC(=O)c1c(O)nc(OC)c(OC)c1O [Compound 16b, 1-(2,4-dihydroxy-5,6-dimethoxypyridin-3-yl)pentan-1-one]
[5]
  pIC50: 7.02
[1]
  LLE (Ligand-Lipophilicity Efficiency): 5.37
[1]; [11]
  pIC50: 6.46
[1]; [12]
  pIC50: 6.46

## COc1nc(O)c(C(=O)CCCCOCc2ccccc2)c(O)c1OC [Compound 16d, 5-(benzyloxy)-1-(2,4-dihydroxy-5,6-dimethoxypyridin-3-yl)pentan-1-one]
[1]
  LLE (Ligand-Lipophilicity Efficiency): 3.41
[1]; [12]
  pIC50: 6.55

## COc1nc(O)c(C(=O)CCCCO)c(O)c1OC [Compound 16e, 1-(2,4-dihydroxy-5,6-dimethoxypyridin-3-yl)-5-hydroxypentan-1-one]
[1]
  LLE (Ligand-Lipophilicity Efficiency): 6.90
[1]; [12]
  pIC50: 5.43

## CCCCCCC(=O)c1c(O)nc(OC)c(OC)c1O [Compound 16f, 1-(2,4-dihydroxy-5,6-dimethoxypyridin-3-yl)heptan-1-one]
[5]
  pIC50: 7.70
[1]
  LLE (Ligand-Lipophilicity Efficiency): 4.57
[1]; [12]
  pIC50: 6.55

## CCCCCCCC(=O)c1c(O)nc(OC)c(OC)c1O [Compound 16g, 1-(2,4-dihydroxy-5,6-dimethoxypyridin-3-yl)octan-1-one]
[1]
  LLE (Ligand-Lipophilicity Efficiency): 4.89
[1]; [12]
  pIC50: 7.31

## CCCCCCCCC(=O)c1c(O)nc(OC)c(OC)c1O [Compound 16h, 1-(2,4-dihydroxy-5,6-dimethoxypyridin-3-yl)nonan-1-one]
[1]
  LLE (Ligand-Lipophilicity Efficiency): 4.93
[1]; [12]
  pIC50: 7.80

## CCCCCCCCCCC(=O)c1c(O)nc(OC)c(OC)c1O [Compound 16j, 1-(2,4-dihydroxy-5,6-dimethoxypyridin-3-yl)undecan-1-one]
[1]
  LLE (Ligand-Lipophilicity Efficiency): 4.32
[1]; [11]
  pIC50: 8.07

## CCCCCCCCCCCCC(=O)c1c(O)nc(OC)c(OC)c1O [Compound 16k, 1-(2,4-dihydroxy-5,6-dimethoxypyridin-3-yl)tridecan-1-one]
[6]
  IC50: 10.7 µg/mL (≈ 29.1 µM)
[7]; Homo sapiens, 22Rv1, 48 h, read-out: 22Rv1 IC50
  IC50: 2 µg/mL (≈ 5.44 µM)
[7]; MTS, 48 hours unless otherwise noted
  22Rv1 IC50: 2 µg/mL
[7]; cell line not given
  increase in efficacy relative to Enzalutamide, inhibition of cancer growth in vitro: 10 fold
[8]; 16c: DU-145 and 22Rv1, 16k: 22Rv1
  selectivity for prostate cancer cells over HEK293: 17.5 fold
[8]; Homo sapiens, HEK293, 48 h, read-out: HEK293 IC50
  IC50: 35 µg/mL (≈ 95.2 µM)
[4]
  pIC50: < 5.00
  Selectivity Ratio (CII:CI): >3030
[4]; read-out: Complex I IC50
  pIC50: < 5.00
[1]
  LLE (Ligand-Lipophilicity Efficiency): 3.76
[1]; conversion of the nM value
  CII IC50 expressed: 0.00121 µg/mL

## CCCCCC(O)c1c(OCOC)nc(OC)c(OC)c1OCOC (centres unmarked) [Compound 17, 1-(5,6-dimethoxy-2,4-bis(methoxymethoxy)pyridin-3-yl)hexan-1-ol]
[1]
  inhibition of CII at 100 nM concentration: 0%

## CCCCCC(=O)c1cnc(OC)c(OC)c1O [Compound 20, 1-(4-hydroxy-5,6-dimethoxypyridin-3-yl)hexan-1-one]
[1]
  inhibition of CII at 100 nM concentration: 0%
  CII inhibition activity: no activity at 100 nM concentration

## CCCCCC(OC)c1cnc(OC)c(OC)c1O (centres unmarked) [Compound 24, 2,3-dimethoxy-5-(1-methoxyhexyl)pyridin-4-ol]
[9]; Homo sapiens, DU-145, 48 h, read-out: DU-145 IC50
  IC50: > 30 µg/mL
[9]; up to 30 μg/mL
  growth inhibition of DU-145 cells: no growth inhibition effect
[1]
  inhibition of CII at 100 nM concentration: 0%
  CII inhibition activity: no activity to inhibit CII at 100 nM

## CC1=NS(=O)(=O)c2cc(Cl)ccc2N1 [Diazoxide, diazoxide, reference compound]
[3]; literature
  pIC50: 4.49
[1]
  LLE (Ligand-Lipophilicity Efficiency): 1.85

## COc1cc([C@@H]2c3cc4c(cc3[C@@H](O[C@@H]3O[C@@H]5CO[C@@H](C)O[C@H]5[C@H](O)[C@H]3O)[C@H]3COC(=O)[C@H]23)OCO4)cc(OC)c1O [Etoposide, etoposide, reference compound]
[2]; 10 μM, hypoxia
  cell death: 7%

## O=C(O)CC(=O)O [Malonate]
[3]; literature
  pIC50: 4.40

## CCCCC(=O)c1c(O)nc(OC)c(OC)c1O [SDH1]
[10]
  value at 100 nM (Control 100%): 65.17%
  value at 1 uM (Control 100%): 35.13%

## COc1nc(O)c(C(=O)CCCC[P+](c2ccccc2)(c2ccccc2)c2ccccc2)c(O)c1OC [SDH2]
[10]
  value at 100 nM (Control 100%): 61.64%
  value at 1 uM (Control 100%): 43.53%

## O=C(CC(=O)C(F)(F)F)c1cccs1 [TFFA, Thenoyltrifluoroacetone]
[3]; literature
  pIC50: 4.52

## Cc1c(C)c2c(c(C)c1OC(=O)CCC(=O)O)CC[C@@](C)(CCC[C@H](C)CCC[C@H](C)CCCC(C)C)O2 [α-TOS, α-Tocopheryl succinate]
[3]; literature
  pIC50: 4.38

From patent publication US20240166603A1, “Method of Treating Cancer With Atpenin A5 Derviatives” (Texas Tech University System, priority 2018, published 2024)
